Columns and labels:
HeLa cells = assay: Autophagosome formation in HeLa cells by transmission electron microscope; format: cell-based; conditions: 100 μg/mL UCN+RE-1 or UCP+RE-1, 24 hr
Method: HeLa cells were inoculated into a 24-well cell culturing plate at a density of about 3-5×10^4 cells/well, and cultured overnight for further use. At first, the medium was replaced with fresh DMEM medium, and then 100 μg/mL UCN, UCP, UCN+RE-1, or UCP+RE-1 was added. An equal volume of PBS was used as blank. After culturing for 24 hr, the cells were collected and in situ fixed with 2.5% glutaral-dimethyl arsine buffer (pH 7.4) at 4° C. for 1 hr, then fixed with 2% osmium tetroxide at room temperature for 1 hr, and then dehydrated with ethanol gradients. Then, the cell samples were embedded into epoxy resin (EPON812). The embedded cell samples were cut into ultrathin slices, which were stained with uranyl acetate and lead citrate, and observed and imaged under a transmission electron microscope (JEOL-1230, JEOL, Japan).

[1] = Inhibition of the binding of REOB-1 to Nd2O3 by RE-1 short peptide at various concentrations
Method: RE-1 short peptides at various concentrations (0 μg/mL, 1 μg/mL, 10 μg/mL, 50 μg/mL, 100 μg/mL, and 500 μg/mL) were incubated with 100 μL Nd2O3 (1 mg/mL) comprising REOB-1 phages at a titer of 10^8 at 37° C. for 2 hr. The resulting precipitate was washed 10 times. The phages binding to Nd2O3 were recovered. 5000 μg/mL of AP-1 short peptide was treated according to the same procedure as described above, as a control.

[2] = Competitive inhibition of REOB-1 phage binding to Nd2O3 by polypeptides (IC50); conditions: 100 μg Nd2O3, REOB-1 phages at a titer of 108, 2 hr incubation; read-out: IC50 (μM)* of polypeptides competitively inhibiting the binding of REOB-1 phages to Nd2O3 nanoparticles
Method: 100 μg Nd2O3 was mixed with the polypeptides, RE-1, AP-1, RE-2, RE-3, RE-4, RE-5, RE-6, RE-7, RE-8, RE-9, RE-10, etc., respectively. To the mixture, REOB-1 phages at a titer of 108 were added. After 2 hr of incubation, the number of REOB-1 phages binding to Nd2O3 was measured. IC50 value indicated the relative activity of various polypeptides competitively inhibiting the binding of REOB-1 phages to Nd2O3 nanoparticles. The polypeptide RE-1 and its analogues had different binding ability to Nd2O3.

mice liver = assay: Liver damage in mice livers (HE staining); format: in vivo, Balb/c mice; conditions: UCP+RE-1 or UCP+AP-1, tail vein, 24 hr
Method: Balb/c mice (purchased from SLAC Laboratory Animal (Shanghai, China), 6 weeks old, and weighed 20 g when used) were bred in a sterile housing, and then 300 μg (dosage: 15 mg/kg) UCN, UCN+PEG (containing 10 mg PEG), UCN+RE-1, UCP, UCP+RE-1, or UCP+AP-1 was injected through tail vein. An equal volume of normal saline was injected as a control. After 24 hr, the livers of the mice were removed and subjected to western blotting assay.
The mice livers obtained as described in Example 21 were in situ fixed with 2.5% glutaral-dimethyl arsine buffer (pH 7.4) at 4° C. for 1 hr, then fixed with 2% osmium tetroxide at room temperature for 1 hr, and then dehydrated with ethanol gradients. Then, the cell samples were embedded in paraffin. The embedded cell samples were cut into ultrathin slices, which were stained with HE (hematoxylin-eosin), and observed and imaged under fluorescence microscope.

HeLa-LC3 cells = assay: RE-1 analogues blocking nanophosphor-induced autophagy (LC3 aggregates and vacuoles); format: cell-based
Method: UCN and UCP coated with RE-1 analogues RE-2, RE-3, or RE-5 were prepared as follows: 50 μg or 10 μg RE-1 analogues RE-2, RE-3, or RE-5 was mixed with 100 μg UCN or UCP, respectively, incubated at 37° C. for 2 hr, centrifuged at 12000 rpm, and then washed with water 3 times to remove the excess and unbound peptides. The resultant precipitate was resuspended in 100 μL water.
HeLa-LC3 cells were inoculated into a 96-well cell culture plate at a density of about 1-2×10^4 cells/well, and cultured overnight for further use. At first, the medium was replaced with fresh DMEM medium, and then 100 μg/mL UCN, UCN+RE-1, UCN+RE-2, UCN+RE-3, or UCN+RE-5 was added. An equal volume of PBS was used as blank. A mixture of 100 μg/mL UCN and 10 mg/mL PEG was used as negative control. A mixture of 100 mM trehalose and 50 μg RE-1 was used as positive control. After culturing for 24 hr, a fluorescence microscope was used to observe, image, and count.
HeLa-LC3 cells were inoculated into a 96-well cell culture plate at a density of about 1-2×10^4 cells/well, and cultured overnight for further use. At first, the medium was replaced with fresh DMEM medium, and then 100 μg/mL UCP, UCP+RE-1, UCP+RE-2, UCP+RE-3, or UCP+RE-5 was added. An equal volume of PBS was used as blank. After culturing for 24 hr, a fluorescence microscope was used to observe, image, and count.
The ability to induce cell autophagy was estimated by determining the numbers of LC3 aggregates and vacuoles.

[3] = Binding of FITC-RE-1 to UCP (time, concentration, pH, salt, temperature); conditions: 10 μg FITC-RE-1, 100 μg UCP
Method: 10 μg of FITC-RE-1 was incubated with 100 μg of UCP for different time periods (2 min, 10 min, 30 min, 120 min, and 720 min). Then, the amount of FITC-RE-1 fluorescent peptide binding to UCP was measured by using fluorescence spectrophotometer.
100 μg of UCP was incubated with FITC-RE-1 at various concentrations (1 μg, 5 μg, 10 μg, and 20 μg) for 1 hr. The excess and unbound peptides were washed off. The amount of FITC-RE-1 fluorescent peptide binding to UCP was measured by using fluorescence spectrophotometer.
(§1) 10 μg of FITC-RE-1 was incubated with 100 μg of UCP dissolved at different pH values (pH 3, 5, 7, 10) for 1 hr. The excess and unbound peptides were washed off. The amount of FITC-RE-1 fluorescent peptide binding to UCP was measured by using fluorescence spectrophotometer.
as §1, with “salt ion concentrations (0 M, 0.15 M, 0.3 M, and 0.5 M NaCl)” for “pH values (pH 3, 5, 7, 10)”
as §1, with “dissolved in water” for “dissolved”, “temperatures (25° C., 37° C., 55° C., and 80° C.)” for “pH values (pH 3, 5, 7, 10)”

With “ACTARSPWICG [RE-1, RE-0 with terminal amino acids A and G added]” the “inhibition of autophagosome formation induced by UCN, UCP” value (HeLa cells) was “significantly inhibited”, the “dependence of inhibition of REOB-1 binding to Nd2O3 on RE-1 concentration” value ([1]; 0-500 μg/mL RE-1) was “concentration-dependent” and the “inhibition of the binding of REOB-1 to Nd2O3” value ([1]; RE-1 concentration greater than 10 μg/mL, REOB-1 titer 10^8, 37° C., 2 hr) was “nearly completely inhibited”. For the same sequence, the IC50 [2] was 3.01 ± 0.14 µM, the “effect of coating on liver damage induced by UCP” value (mice liver) was “significantly reduced the level of the damages to livers” and the “rank of ability after coating UCN to inhibit cell autophagy induced by UCN” value (HeLa-LC3 cells; 100 μg/mL, 24 hr) was “RE-1>RE-3>RE-5”. For the same sequence, the “inhibition of cell autophagy induced by Tre (trehalose)” value (HeLa-LC3 cells; mixture of 100 mM trehalose and 50 μg RE-1) was “had no inhibition”, the “binding to UCP at 2 min” value ([3]; 2 min) was 50% and the “binding to UCP at 10 min” value ([3]; 10 min) was “almost binding saturation”.

From patent US9540418B2, “Polypeptide specifically binding to rare earth nanoparticles and use thereof” (University of Science and Technology of China, priority 2012, dated 2017)
